Laboratory results reported in article PMC8126888 (RSC Medicinal Chemistry, 2020).
pIC50: −log10 of the molar value. Where two headings read alike, the source gives them in different places.

Tests used:
[1] = system: Leishmania infantum MHOM/MA(BE)/67/ITMAP263 intracellular amastigotes; experiment: microbe, parasite or virus in culture; conditions: Macrophage, in Mus musculus; for pIC50: read-out: L. infantum MHOM/MA(BE)/67/ITMAP263 intracellular amastigotes IC50, intracellular amastigotes
[2] = system: primary peritoneal mouse macrophages (PMM); experiment: cells; conditions: Macrophage; for pIC50: read-out: PMM IC50; for IC50: read-out: PMM IC50 (uM)
[3] = system: Trypanosoma cruzi, Tulahuen CL2, beta-galactosidase strain; experiment: microbe, parasite or virus in culture; conditions: for pIC50: MRC5, read-out: T. cruzi Tulahuen C4 (LacZ) IC50; for IC50: MRC5, read-out: T. cruzi Tulahuen C4 (LacZ) IC50 (uM)
in vitro [4] = conditions: human
physchem = conditions: HPLC, Ascentis Express RP Amide column, pH 7.4, eLogD, experimental
in vitro [5] = conditions: PAMPA
in vitro [6] = conditions: human, microsomes, human liver microsomes
in vitro [7] = conditions: human, HFF-1 cells
in vitro [8] = conditions: mouse, microsomes, pH 7.4, MLM CLint (uL/min/mg), mouse liver microsomes
in vitro [9] = conditions: human, HepG2 cells
in vitro [10] = conditions: PAMPA; remark: listed apart in the source
[11] = read-out: L. Inf. pIC50, from L. infantum intracellular amastigote IC50 (converted)
[12] = read-out: L. infantum MHOM/MA(BE)/67/ITMAP263 intracellular amastigotes IC50 (uM), intracellular amastigotes

| SMILES | IC50 [1, 11] [µM] | pIC50 [1] | pIC50 [2] | pIC50 [3] | CC50 at 3 days (in vitro [4]) [µM] | chromatographic logD (physchem) | Papp (in vitro [5]) [×10⁻⁶ cm/s] | microsomal CLint at 0.5 μM (in vitro [6]; pH 7.4, HLM CLint) [µL/min/mg] | CC50 (in vitro [7]) [µM] | IC50 [1, 12] [µM] | IC50 [2] [µM] | microsomal CLint at 0.5 μM (in vitro [8]) [µL/min/mg] | IC50 [3] [µM] | microsomal CLint at 0.5 μM (in vitro [6]; pH 7.4, HLM CLint (uL/min/mg)) [µL/min/mg] | CC50 (in vitro [9]) [µM] | Papp (in vitro [10]) [×10⁻⁶ cm/s] |
| --- | --- | --- | --- | --- | --- | --- | --- | --- | --- | --- | --- | --- | --- | --- | --- | --- |
| O=S1(=O)NC(Cc2ccccc2)COc2ccc(F)cc21 (centres unmarked) [DNDI0003368460] | > 64 | < 4.19 | < 4.19 | < 4.19 | > 64 | 3.3 | 26.2 | – | – | – | – | – | – | – | – | – |
| COc1ccc(C(=O)O)cc1S(=O)(=O)N(Cc1ccccc1)Cc1ccccc1 [DNDI0003368287] | 57.5 | 4.24 | < 4.19 | < 4.19 | > 64 | – | 17.8 | < 23 | – | – | – | – | – | – | – | – |
| COc1ncccc1S(=O)(=O)N(Cc1ccccc1)Cc1ccccc1 [DNDI0003368299] | 0.646 | 6.19 | < 4.19 | 5.20 | 3.81 | – | 2.05 | 849 | – | – | – | – | – | – | – | – |
| COc1ccc(CN(Cc2ccc(F)cc2)S(=O)(=O)c2cc(F)ccc2OCCN(C)C)cc1 [DNDI0003378485] | 3.24 | – | – | – | 6.43 | 5 | – | – | 1.95 | 3.24 | 8 | 1080 | 6.96 | 183 | 9.1 | 0.29 |
| CNCCOc1ccc(F)cc1S(=O)(=O)N(Cc1ccc(F)cc1)Cc1ccc(F)cc1 [DNDI0003389318] | 2.4 | – | – | – | 4.22 | 5.3 | – | – | 7.25 | 2.38 | 8 | 84 | 5.11 | 46 | 6.84 | 0.43 |
| COCCN(Cc1ccc(F)cc1)S(=O)(=O)c1cc(C#N)ccc1OC [DNDI0003368395] | 8.91 | 5.05 | < 4.19 | < 4.19 | > 64 | – | 15.3 | < 23 | – | – | – | – | – | – | – | – |
| COc1ccc(S(=O)(=O)N2CCOCC2)cc1C(=O)N(Cc1ccc(F)cc1)Cc1ccc(F)cc1 [DNDI0003389643] | 17 | – | – | – | > 64 | 3.9 | – | – | > 64 | 16.9 | > 64 | 610 | 16.6 | 717 | > 64 | 4.14 |
| COc1ccc(OC)c(S(=O)(=O)N(Cc2ccc(F)cc2)C2CCOCC2)c1 [DNDI0003388086] | > 64 | – | – | – | > 64 | 3.7 | – | – | > 64 | > 64 | > 64 | 599 | 45 | 49 | > 64 | 31.9 |
| COc1ccc(C(=O)N2CCOCC2)cc1S(=O)(=O)N(Cc1ccccc1)Cc1ccccc1 [DNDI0003368296] | 0.457 | 6.34 | 4.34 | < 4.19 | > 64 | – | 6.19 | 810 | – | – | – | – | – | – | – | – |
| COc1ccc(C(=O)N(C)CCO)cc1S(=O)(=O)N(Cc1ccc(F)cc1)Cc1ccc(F)cc1 [DNDI0003371175] | 2.09 | – | – | – | > 64 | 3.8 | – | – | 60.2 | 2.08 | > 64 | 605 | 25.3 | 498 | 57.6 | 11.2 |
| O=S(=O)(c1ccccn1)N(Cc1ccccc1)Cc1ccccc1 [DNDI0003389646] | 16.2 | – | – | – | > 64 | 4 | – | – | 33.8 | 16.1 | > 64 | 449 | 27.7 | 218 | > 64 | 9.55 |
| COc1ccc(C(=O)N2CCOCC2)cc1S(=O)(=O)N(C)Cc1ccc(F)cc1 [DNDI0003389126] | 57.5 | – | – | – | > 64 | 2.7 | – | – | > 64 | 57 | > 64 | 94 | 41.4 | 70 | > 64 | 16.6 |
| COc1ccc(C#N)cc1S(=O)(=O)N(Cc1ccccc1)Cc1ccccc1 [DNDI0003366138] | 0.437 | 6.36 | < 4.19 | 5.09 | 40.4 | – | 3.93 | 304 | – | – | – | – | – | – | – | – |
| COc1ccc(CN2CCC(F)(F)CC2)cc1S(=O)(=O)N(Cc1ccc(F)cc1)Cc1ccc(F)cc1 [DNDI0003389116] | 3.16 | – | – | – | > 64 | 4.8 | – | – | 18.2 | 3.18 | 45.2 | 1760 | 2.93 | 984 | > 64 | 0.4 |
| CS(=O)(=O)c1ccccc1S(=O)(=O)N(Cc1ccccc1)Cc1ccccc1 [DNDI0003389642] | 32.4 | – | – | – | > 64 | 4.1 | – | – | 38.1 | 32 | > 64 | 502 | 24.3 | 248 | > 64 | 6.25 |
| COc1ccc(N2CCN(C)CC2)cc1S(=O)(=O)N(Cc1ccc(F)cc1)Cc1ccc(F)cc1 [DNDI0003389645] | 0.398 | – | – | – | 28.7 | 4.4 | – | – | 8.45 | 0.4 | 8 | 212 | 2.8 | 152 | 26.8 | 0.71 |
| COc1ccc(C(=O)N2CCN(C)CC2)cc1S(=O)(=O)N(Cc1ccc(F)cc1)Cc1ccc(F)cc1 [DNDI0003371173] | 0.537 | – | – | – | 25.8 | 4.7 | – | – | 4.16 | 0.54 | 32 | 2240 | 11.1 | 585 | 49.5 | 3.23 |
| COc1ccc(Cl)cc1S(=O)(=O)N(Cc1ccccc1)CC(N)c1ccc(F)cc1 (centres unmarked) [DNDI0003389932] | 6.46 | – | – | – | 14 | 4.3 | – | – | > 64 | 6.39 | 32 | 239 | 4.64 | 34 | 19.5 | 0.59 |
| COc1ccc(C(=O)N2CCOCC2)cc1S(=O)(=O)N(Cc1ccc(F)cc1)Cc1ccc(F)cc1 [DNDI0003371178] | 1.02 | – | – | – | > 64 | 4 | – | – | 46.9 | 1.02 | > 64 | 984 | 50.7 | 997 | 44.5 | 9.35 |
| COc1ccc(OC)c(S(=O)(=O)N(Cc2ccc(F)cc2)Cc2nc(C)no2)c1 [DNDI0003368295] | 7.76 | 5.11 | < 4.19 | 4.52 | > 64 | – | 8.92 | 350 | – | – | – | – | – | – | – | – |
| COc1ccc(C(=O)N2CCOCC2)cc1S(=O)(=O)N(Cc1ccc(F)cc1)Cc1ccccc1Cl [DNDI0003389128] | 1.41 | – | – | – | 36.8 | 4.1 | – | – | 10.5 | 1.4 | > 64 | 1660 | 9.66 | 351 | > 64 | 9 |
| COc1ccc(CNC2COC2)cc1S(=O)(=O)N(Cc1ccc(F)cc1)Cc1ccc(F)cc1 [DNDI0003389115] | 1.78 | – | – | – | 41.7 | 4 | – | – | 51.7 | 1.79 | > 64 | 384 | 14.4 | 147 | > 64 | 3.42 |
| COc1ccc(Cl)cc1S(=O)(=O)N(Cc1ccccc1)CC(O)c1ccc(F)cc1 (centres unmarked) [DNDI0003389316] | 12 | – | – | – | 23.5 | 3.1 | – | – | 4.75 | 12 | > 64 | 147 | 17.8 | 298 | 51.5 | 4 |
| O=S(=O)(c1cc(N2CCOCC2)ccc1OC(F)F)N(Cc1ccc(F)cc1)Cc1ccc(F)cc1 [DNDI0003389647] | 0.501 | – | – | – | > 64 | 4.8 | – | – | 37.6 | 0.5 | 45.2 | 462 | 5.62 | 153 | > 64 | 0.12 |
